In general, Emax refers to the greatest response seen or fitted, relative to the assay's reference. A word on the Ki: it is a dissociation constant, usually derived from enzyme kinetics or from competition with a known ligand. The EC50 is the concentration at which the effect is half-maximal.

In patent US9447148B2, “Melanocortin-1 receptor-specific cyclic peptides” (Palatin Technologies, Inc., priority 2009, dated 2016) one finds Emax, Ki and EC50 data, which are given here for 13 compounds.

Molecules are shown by their SMILES. Bridge positions count the residues as written; N and C are the ends. Square brackets hold non-standard residues; d marks the D form. Peptide text beside a SMILES is read from it. dPhe(3,4-F2) = N[C@H](Cc1ccc(F)c(F)c1)C(=O)O; dPhe(3-Cl) = N[C@H](Cc1cccc(Cl)c1)C(=O)O; dPhe(4-Cl) = N[C@H](Cc1ccc(Cl)cc1)C(=O)O; dPhe(2-Cl) = N[C@H](Cc1ccccc1Cl)C(=O)O; dPhe(4-F) = N[C@H](Cc1ccc(F)cc1)C(=O)O; dPhe(2-F) = N[C@H](Cc1ccccc1F)C(=O)O; Nle = CCCC[C@H](N)C(=O)O; Orn = NCCC[C@H](N)C(=O)O; Dab = NCC[C@H](N)C(=O)O

The target of one test is hMCR-1 (Homo sapiens (Human), UniProt Q01726). In words: Assay for agonist activity: intracellular cAMP accumulation in HBL human melanoma cells. The conditions noted are these: for EC50: HBL cells expressing hMCR-1, averaged, read-out: MC-1 EC50 (average; cAMP HBL). It counts as cell-based. How it is done: Confluent HBL cells that express hMCR-1 or HEK-293 cells that express recombinant hMCR-4 were detached from culture plates by incubation in enzyme-free cell dissociation buffer. Dispersed cells were suspended in Earle's Balanced Salt Solution containing 10 mM HEPES (pH 7.5), 1 mM MgCl2, 1 mM glutamine, 0.5% albumin and 0.3 mM 3-isobutyl-1-methyl-xanthine (IBMX), a phosphodiesterase inhibitor. The cells were plated in 96-well plates at a density of 0.4×10^5 cells per well for HBL cells and 0.5×10^5 cells per well for HEK-293 cells and pre-incubated for 10 minutes. Cells were exposed for 15 minutes at 37° C. to peptides of the present invention dissolved in DMSO (final DMSO concentration of 1%) at a concentration range of 0.05-5000 nM in a total assay volume of 200 μL. […] Data analysis was performed by nonlinear regression analysis with Graph-Pad Prism® software.
(§1) Peptides of the following structures were synthesized and averaged MCR-1 and MCR-4 Ki values were determined as indicated. […] All results are expressed in nM except for Emax values, which are percentage values. Peptides with the captioned primary sequence were synthesized and purified as described in Section 5 above, with the resulting peptide having the structure depicted.
(In general: Changes in cAMP serve as a functional read-out for many G protein-coupled receptors.)

For another test, the target named is hMCR-4 (Homo sapiens (Human), UniProt P32245). In words: Competitive inhibition binding assay using [I125]-NDP-α-MSH, hMCR-4. The conditions noted are these: membrane homogenates of HEK-293 cells, human recombinant receptor, averaged, read-out: MC-4 Ki (average). How it is done: (§2) A competitive inhibition binding assay was performed using membrane homogenates prepared from HEK-293 cells that express recombinant hMCR-1a or hMCR-4 (in each instance where the h prefix refers to human), or alternatively membrane homogenates from B16-F10 mouse melanoma cells containing endogenous murine MCR-1. In the examples that follow, all MCR-1 and MCR-4 values are for human recombinant receptors, unless otherwise noted. Assays were performed in 96 well polypropylene round-bottom plates (VWR catalog number 12777-030). […] After incubation for 90 minutes at 37° C., the assay mixture was filtered onto GF/B Unifilter plates (Perkin-Elmer catalog number 6005177) and washed with 3 mL of ice-cold buffer per well. Filters were air dried and 35 μL of scintillation cocktail added to each well. Plates were counted in a Microbeta counter for bound radioactivity. […] Each assay was conducted in duplicate and the actual mean values are described, with results less than 0% reported as 0%. Ki values for peptides of the present invention were determined using Graph-Pad Prism® curve-fitting software.
as §1

In another test the target is hMCR-1a (Homo sapiens (Human), UniProt Q01726). The test can be described thus: Competitive inhibition binding assay using [I125]-NDP-α-MSH, hMCR-1a. Conditions: membrane homogenates of HEK-293 cells, human recombinant receptor, averaged, read-out: MC-1 Ki (average). How it is done:
as §2, §1

hMCR-4, sequence (P32245 whole entry): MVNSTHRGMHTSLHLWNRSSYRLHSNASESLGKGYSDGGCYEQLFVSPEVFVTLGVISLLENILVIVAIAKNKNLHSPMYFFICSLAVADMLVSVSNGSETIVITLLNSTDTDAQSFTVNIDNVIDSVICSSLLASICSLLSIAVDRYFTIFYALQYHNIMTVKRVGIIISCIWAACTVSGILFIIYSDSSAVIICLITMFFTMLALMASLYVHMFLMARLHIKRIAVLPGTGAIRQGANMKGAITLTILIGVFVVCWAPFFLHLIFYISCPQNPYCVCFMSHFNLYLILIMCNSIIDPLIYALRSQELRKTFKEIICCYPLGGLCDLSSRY
hMCR-1a, sequence (Q01726 whole entry): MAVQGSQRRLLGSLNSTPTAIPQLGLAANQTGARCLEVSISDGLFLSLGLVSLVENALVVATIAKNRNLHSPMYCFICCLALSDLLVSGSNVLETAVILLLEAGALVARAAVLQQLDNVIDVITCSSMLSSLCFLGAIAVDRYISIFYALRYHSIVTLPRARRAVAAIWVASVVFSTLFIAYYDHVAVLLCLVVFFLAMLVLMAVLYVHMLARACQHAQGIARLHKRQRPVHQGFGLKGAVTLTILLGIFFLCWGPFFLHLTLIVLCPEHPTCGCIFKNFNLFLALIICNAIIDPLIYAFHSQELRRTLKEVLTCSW
hMCR-1, sequence (Q01726 whole entry): as above

In the case of `CCCC[C@H](NC(C)=O)C(=O)N[C@H]1CCC(=O)NC[C@@H](C(=O)N[C@@H](Cc2c[nH]c3ccccc23)C(=O)O)NC(=O)[C@H](CCCNC(=N)N)NC(=O)[C@@H](Cc2ccccc2)NC(=O)[C@H](Cc2c[nH]cn2)NC1=O` [Example 9.26, Ac-Nle-cyclo(Glu-His-D-Phe-Arg-Dap)-Trp-OH], on hMCR-1 (HBL, HBL cells, maximum efficacy compared to reference agonist NDP-α-MSH, read-out: MC-1 Emax (average; cAMP HBL)), the Emax amounted to 81%. In addition, the Ki at hMCR-4 is 4700 nM; at hMCR-1a, 1 nM.
Turning to `CCCC[C@H](NC(C)=O)C(=O)N[C@H]1CCC(=O)NCC[C@@H](C(N)=O)NC(=O)[C@H](CCCNC(=N)N)NC(=O)[C@@H](Cc2ccccc2)NC(=O)[C@H](Cc2c[nH]cn2)NC1=O` [Example 9.32, Ac-Nle-cyclo(Glu-His-D-Phe-Arg-Dab)-NH2] (Ac-[Nle]EH[dF]R[Dab]-NH2; lactam 2-6), at hMCR-1, the EC50 is 0.32 nM. The Ki on hMCR-4 was 10000 nM; at hMCR-1a, 7 nM.
Taken in the same sequence, the figures for `CCCC[C@H](NC(C)=O)C(=O)N[C@H]1CCC(=O)NCC[C@@H](C(N)=O)NC(=O)[C@H](C)NC(=O)[C@@H](Cc2ccccc2)NC(=O)[C@H](Cc2c[nH]cn2)NC1=O` [Example 9.33, Ac-Nle-cyclo(Glu-His-D-Phe-Ala-Dab)-NH2] (Ac-[Nle]EH[dF]A[Dab]-NH2; lactam 2-6) were 44 nM, 10000 nM and 645 nM.
For `CCCC[C@H](NC(C)=O)C(=O)N[C@H]1CCC(=O)NCC[C@@H](C(=O)N[C@@H](Cc2c[nH]c3ccccc23)C(N)=O)NC(=O)CNC(=O)[C@@H](Cc2ccccc2)NC(=O)[C@H](Cc2c[nH]cn2)NC1=O` [Example 9.34, Ac-Nle-cyclo(Glu-His-D-Phe-Gly-Dab)-Trp-NH2] (Ac-[Nle]EH[dF]G[Dab]W-NH2; lactam 2-6) the same measures were 4 nM, 10000 nM and 9 nM.
For `CCCC[C@H](NC(C)=O)C(=O)N[C@H]1CCC(=O)NCC[C@@H](C(=O)N[C@@H](Cc2c[nH]c3ccccc23)C(N)=O)NC(=O)[C@H](C)NC(=O)[C@@H](Cc2ccccc2)NC(=O)[C@H](Cc2c[nH]cn2)NC1=O` [Example 9.35, Ac-Nle-cyclo(Glu-His-D-Phe-Ala-Dab)-Trp-NH2] (Ac-[Nle]EH[dF]A[Dab]W-NH2; lactam 2-6), the EC50 at hMCR-1 worked out at 0.115 nM. Also, the Ki was 10000 nM on hMCR-4 and 0.8 nM at hMCR-1a.
For `CCCC[C@H](NC(C)=O)C(=O)N[C@H]1CCC(=O)NCC[C@@H](C(=O)N[C@@H](CCCCN)C(N)=O)NC(=O)[C@H](CCCNC(=N)N)NC(=O)[C@@H](Cc2ccccc2)NC(=O)[C@H](Cc2c[nH]cn2)NC1=O` [Example 9.39, Ac-Nle-cyclo(Glu-His-D-Phe-Arg-Dab)-Lys-NH2] (Ac-[Nle]EH[dF]R[Dab]K-NH2; lactam 2-6) the same measures were 0.175 nM, 7380 nM and 2 nM.
For `CCCC[C@H](NC(C)=O)C(=O)N[C@H]1CCC(=O)NCC[C@@H](C(N)=O)NC(=O)[C@H](CCCNC(=N)N)NC(=O)[C@@H](Cc2ccccc2Cl)NC(=O)[C@H](CCCN)NC1=O` [Example 9.57, Ac-Nle-cyclo(Glu-Orn-D-Phe(2-Cl)-Arg-Dab)-NH2] (Ac-[Nle]E[Orn][dPhe(2-Cl)]R[Dab]-NH2; lactam 2-6) the same measures were 1 nM, 10000 nM and 30 nM.
In the case of `CCCC[C@H](NC(C)=O)C(=O)N[C@H]1CCC(=O)NCC[C@@H](C(N)=O)NC(=O)[C@H](CCCNC(=N)N)NC(=O)[C@@H](Cc2cccc(Cl)c2)NC(=O)[C@H](CCCN)NC1=O` [Example 9.58, Ac-Nle-cyclo(Glu-Orn-D-Phe(3-Cl)-Arg-Dab)-NH2] (Ac-[Nle]E[Orn][dPhe(3-Cl)]R[Dab]-NH2; lactam 2-6), at hMCR-1, the EC50 came out at 2 nM. Besides, the results for the Ki at hMCR-4 and on hMCR-1a were 10000 nM and 35 nM, respectively.
Taken in the same sequence, the figures for `CCCC[C@H](NC(C)=O)C(=O)N[C@H]1CCC(=O)NCC[C@@H](C(N)=O)NC(=O)[C@H](CCCNC(=N)N)NC(=O)[C@@H](Cc2ccc(Cl)cc2)NC(=O)[C@H](CCCN)NC1=O` [Example 9.59, Ac-Nle-cyclo(Glu-Orn-D-Phe(4-Cl)-Arg-Dab)-NH2] (Ac-[Nle]E[Orn][dPhe(4-Cl)]R[Dab]-NH2; lactam 2-6) were 0.1 nM, 1240 nM and 2 nM.
For `CCCC[C@H](NC(C)=O)C(=O)N[C@H]1CCC(=O)NCC[C@@H](C(N)=O)NC(=O)[C@H](CCCNC(=N)N)NC(=O)[C@@H](Cc2ccccc2F)NC(=O)[C@H](CCCN)NC1=O` [Example 9.60, Ac-Nle-cyclo(Glu-Orn-D-Phe(2-F)-Arg-Dab)-NH2] (Ac-[Nle]E[Orn][dPhe(2-F)]R[Dab]-NH2; lactam 2-6), the EC50 at hMCR-1 turned out to be 0.8 nM. Besides, the Ki at hMCR-4 is 10000 nM; on hMCR-1a it was 18 nM.
With `CCCC[C@H](NC(C)=O)C(=O)N[C@H]1CCC(=O)NCC[C@@H](C(N)=O)NC(=O)[C@H](CCCNC(=N)N)NC(=O)[C@@H](Cc2ccc(F)cc2)NC(=O)[C@H](CCCN)NC1=O` [Example 9.61, Ac-Nle-cyclo(Glu-Orn-D-Phe(4-F)-Arg-Dab)-NH2] (Ac-[Nle]E[Orn][dPhe(4-F)]R[Dab]-NH2; lactam 2-6), the EC50 at hMCR-1 was 1 nM. Also, the results for the Ki on hMCR-4 and at hMCR-1a were 10000 nM and 20 nM, respectively.
Taken in the same sequence, the figures for `CCCC[C@H](NC(C)=O)C(=O)N[C@H]1CCC(=O)NCC[C@@H](C(N)=O)NC(=O)[C@H](CCCNC(=N)N)NC(=O)[C@@H](Cc2ccc(F)c(F)c2)NC(=O)[C@H](CCCN)NC1=O` [Example 9.62, Ac-Nle-cyclo(Glu-Orn-D-Phe(3,4-F)-Arg-Dab)-NH2] (Ac-[Nle]E[Orn][dPhe(3,4-F2)]R[Dab]-NH2; lactam 2-6) were 1 nM, 10000 nM and 40 nM.
Taken in the same sequence, the figures for `CCCC[C@H](NC(C)=O)C(=O)N[C@H]1CCC(=O)NCC[C@@H](C(N)=O)NC(=O)[C@H](CCCNC(=N)N)NC(=O)[C@@H](Cc2ccc(OC)cc2)NC(=O)[C@H](CCCN)NC1=O` [Example 9.64, Ac-Nle-cyclo(Glu-Orn-D-Phe(4-OMe)-Arg-Dab)-NH2] (Ac-[Nle]E[Orn][dY](Me)R[Dab]-NH2; lactam 2-6) were 0.12 nM, 10000 nM and 2 nM.
